# Measurements from PubChem BioAssay (NCI).
#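 Interpolation was linear, between the two tested concentrations surrounding the appropriate level; five concentrations were tested over 48 hours in 96-well plates. At the GI50, growth is halved. TGI is the concentration that stops growth completely.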
# Experiments:
# Assay in all cases: DTP human tumour cell line panel, 48 h
# RPMI-8226 leukemia = tested on: RPMI-8226 leukemia
# MOLT-4 leukemia = tested on: MOLT-4 leukemia
# HCC-2998 colon = tested on: HCC-2998 colon
# LOX IMVI melanoma = tested on: LOX IMVI melanoma
# DU-145 prostate = tested on: DU-145 prostate
# PC-3 prostate = tested on: PC-3 prostate
# SK-MEL-28 melanoma = tested on: SK-MEL-28 melanoma
# NCI-H460 lung = tested on: NCI-H460 lung
# HCT-116 colon = tested on: HCT-116 colon
# KM12 colon = tested on: KM12 colon
# T-47D breast = tested on: T-47D breast
# CAKI-1 renal = tested on: CAKI-1 renal
# SW-620 colon = tested on: SW-620 colon
# SK-MEL-5 melanoma = tested on: SK-MEL-5 melanoma
# SF-539 CNS = tested on: SF-539 CNS
# SN12C renal = tested on: SN12C renal
# IGROV1 ovarian = tested on: IGROV1 ovarian
# UACC-257 melanoma = tested on: UACC-257 melanoma
# TK-10 renal = tested on: TK-10 renal
# OVCAR-5 ovarian = tested on: OVCAR-5 ovarian
# NCI/ADR-RES ovarian = tested on: NCI/ADR-RES ovarian
# COLO 205 colon = tested on: COLO 205 colon
# NCI-H522 lung = tested on: NCI-H522 lung
# MALME-3M melanoma = tested on: MALME-3M melanoma
# ACHN renal = tested on: ACHN renal
# HL-60(TB) leukemia = tested on: HL-60(TB) leukemia
# SF-295 CNS = tested on: SF-295 CNS
# U251 CNS = tested on: U251 CNS
# UACC-62 melanoma = tested on: UACC-62 melanoma
# SR leukemia = tested on: SR leukemia
# HOP-92 NSCLC = tested on: HOP-92 NSCLC
# A498 renal = tested on: A498 renal
# HOP-62 NSCLC = tested on: HOP-62 NSCLC
# MDA-MB-468 breast = tested on: MDA-MB-468 breast
# NCI-H226 lung = tested on: NCI-H226 lung
# SF-268 CNS = tested on: SF-268 CNS
# EKVX NSCLC = tested on: EKVX NSCLC
# OVCAR-4 ovarian = tested on: OVCAR-4 ovarian
# RXF 393 renal = tested on: RXF 393 renal
# 786-0 renal = tested on: 786-0 renal
# SK-OV-3 ovarian = tested on: SK-OV-3 ovarian
# MCF7 breast = tested on: MCF7 breast
# A549 NSCLC = tested on: A549 NSCLC
# HS 578T breast = tested on: HS 578T breast
# OVCAR-3 ovarian = tested on: OVCAR-3 ovarian
# HT29 colon = tested on: HT29 colon
# K-562 leukemia = tested on: K-562 leukemia
# MDA-MB-435 = tested on: MDA-MB-435
# SNB-19 CNS = tested on: SNB-19 CNS
# BT-549 breast = tested on: BT-549 breast
# HCT-15 colon = tested on: HCT-15 colon
# OVCAR-8 ovarian = tested on: OVCAR-8 ovarian
# CCRF-CEM leukemia = tested on: CCRF-CEM leukemia
# M14 melanoma = tested on: M14 melanoma
# NCI-H23 lung = tested on: NCI-H23 lung
compound,measurement,setting,value
CC[C@]12C=CCN3CC[C@@]4(c5ccc(OC)cc5N(C)[C@H]4[C@@](O)(C(=O)OC)[C@@H]1OC(=O)CCCC[P+](c1ccc(F)cc1)(c1ccc(F)cc1)c1ccc(F)cc1)[C@@H]32,GI50,RPMI-8226 leukemia,2.97 µM
same,TGI,RPMI-8226 leukemia,14.9 µM
same,GI50,MOLT-4 leukemia,14.7 µM
same,TGI,MOLT-4 leukemia,32.6 µM
same,GI50,HCC-2998 colon,12.5 µM
same,TGI,HCC-2998 colon,25.5 µM
same,GI50,LOX IMVI melanoma,16.8 µM
same,TGI,LOX IMVI melanoma,30.8 µM
same,GI50,DU-145 prostate,35.4 µM
same,TGI,DU-145 prostate,> 100 µM
same,GI50,PC-3 prostate,16.4 µM
same,TGI,PC-3 prostate,56.7 µM
same,GI50,SK-MEL-28 melanoma,8.28 µM
same,TGI,SK-MEL-28 melanoma,20.7 µM
same,GI50,NCI-H460 lung,29.4 µM
same,TGI,NCI-H460 lung,> 100 µM
same,GI50,HCT-116 colon,25.9 µM
same,TGI,HCT-116 colon,> 100 µM
same,GI50,KM12 colon,13.4 µM
same,TGI,KM12 colon,27.7 µM
same,GI50,T-47D breast,11.5 µM
same,TGI,T-47D breast,43.2 µM
same,GI50,CAKI-1 renal,> 100 µM
same,TGI,CAKI-1 renal,> 100 µM
same,GI50,SW-620 colon,16.5 µM
same,TGI,SW-620 colon,37.8 µM
same,GI50,SK-MEL-5 melanoma,17.1 µM
same,TGI,SK-MEL-5 melanoma,30.8 µM
same,GI50,SF-539 CNS,21.9 µM
same,TGI,SF-539 CNS,62.4 µM
same,GI50,SN12C renal,28.6 µM
same,TGI,SN12C renal,> 100 µM
same,GI50,IGROV1 ovarian,10.8 µM
same,TGI,IGROV1 ovarian,24.3 µM
same,GI50,UACC-257 melanoma,5.58 µM
same,TGI,UACC-257 melanoma,19.2 µM
same,GI50,TK-10 renal,21.2 µM
same,TGI,TK-10 renal,52.6 µM
same,GI50,OVCAR-5 ovarian,29.1 µM
same,TGI,OVCAR-5 ovarian,> 100 µM
same,GI50,NCI/ADR-RES ovarian,> 100 µM
same,TGI,NCI/ADR-RES ovarian,> 100 µM
same,GI50,COLO 205 colon,4.63 µM
same,TGI,COLO 205 colon,16.4 µM
same,GI50,NCI-H522 lung,5.44 µM
same,TGI,NCI-H522 lung,20.2 µM
same,GI50,MALME-3M melanoma,13.5 µM
same,TGI,MALME-3M melanoma,27.3 µM
same,GI50,ACHN renal,> 100 µM
same,TGI,ACHN renal,> 100 µM
same,GI50,HL-60(TB) leukemia,2.11 µM
same,TGI,HL-60(TB) leukemia,13.2 µM
same,GI50,SF-295 CNS,30.6 µM
same,TGI,SF-295 CNS,> 100 µM
same,GI50,U251 CNS,10.7 µM
same,TGI,U251 CNS,23.3 µM
same,GI50,UACC-62 melanoma,11.3 µM
same,TGI,UACC-62 melanoma,23.5 µM
same,GI50,SR leukemia,14.5 µM
same,TGI,SR leukemia,31.9 µM
same,GI50,HOP-92 NSCLC,6.32 µM
same,TGI,HOP-92 NSCLC,23.5 µM
same,GI50,A498 renal,> 100 µM
same,TGI,A498 renal,> 100 µM
same,GI50,HOP-62 NSCLC,25.5 µM
same,TGI,HOP-62 NSCLC,73.4 µM
same,GI50,MDA-MB-468 breast,2.61 µM
same,TGI,MDA-MB-468 breast,11.1 µM
same,GI50,NCI-H226 lung,27.3 µM
same,TGI,NCI-H226 lung,> 100 µM
same,GI50,SF-268 CNS,17.6 µM
same,TGI,SF-268 CNS,38.3 µM
same,GI50,EKVX NSCLC,21 µM
same,TGI,EKVX NSCLC,> 100 µM
same,GI50,OVCAR-4 ovarian,25.1 µM
same,TGI,OVCAR-4 ovarian,> 100 µM
same,GI50,RXF 393 renal,13.3 µM
same,TGI,RXF 393 renal,31.6 µM
same,GI50,786-0 renal,34.1 µM
same,TGI,786-0 renal,> 100 µM
same,GI50,SK-OV-3 ovarian,23.5 µM
same,TGI,SK-OV-3 ovarian,66.5 µM
same,GI50,MCF7 breast,11.5 µM
same,TGI,MCF7 breast,24.5 µM
same,GI50,A549 NSCLC,33.8 µM
same,TGI,A549 NSCLC,> 100 µM
same,GI50,HS 578T breast,16.9 µM
same,TGI,HS 578T breast,37.5 µM
same,GI50,OVCAR-3 ovarian,9.3 µM
same,TGI,OVCAR-3 ovarian,23.3 µM
same,GI50,HT29 colon,15.4 µM
same,TGI,HT29 colon,38.8 µM
same,GI50,K-562 leukemia,11.3 µM
same,TGI,K-562 leukemia,38.7 µM
same,GI50,MDA-MB-435,12.9 µM
same,TGI,MDA-MB-435,28.4 µM
same,GI50,SNB-19 CNS,13 µM
same,TGI,SNB-19 CNS,26.7 µM
same,GI50,BT-549 breast,12.9 µM
same,TGI,BT-549 breast,27.1 µM
same,GI50,HCT-15 colon,> 100 µM
same,TGI,HCT-15 colon,> 100 µM
same,GI50,OVCAR-8 ovarian,29.4 µM
same,TGI,OVCAR-8 ovarian,> 100 µM
same,GI50,CCRF-CEM leukemia,13.6 µM
same,TGI,CCRF-CEM leukemia,30.3 µM
same,GI50,M14 melanoma,14.7 µM
same,TGI,M14 melanoma,30 µM
same,GI50,NCI-H23 lung,20.1 µM
same,TGI,NCI-H23 lung,53.5 µM
